Data as given in patent publication US4250255A, “Assay method for isoenzyme activity” (Eastman Kodak Company, priority 1977, dated 1981).
Read-outs that look alike come from different tables or passages of the source.

Experiments:
LD1 (beef heart) = target: T1, LD1 (beef heart) (Bos taurus, UniProt Q5E9B1); experiment: LDH activity assay (pyruvate + NADH, absorbance decrease at 340 nm); format: biochemical; settings: DSS 8.65 mM; CP 1 mM; FIG. 1B
T1 construct: Beef heart LDH (Sigma Chemical Co., Type III); purchased Sigma Chemical Co. Type III; host or cells: beef heart
Description: (§1) The assay for LDH activity in both the absence and presence of surfactant was conducted as follows. […] The resulting solution contains approximately 5 units/ml. […] To the equilibrated solution […]. of the enzyme solution was added, and the cuvette was rapidly shaken while covering the top of the cuvette with a small piece of Parafilm® and placed back into the spectrophotometer.
(§2) Amphiphile solutions were prepared by weighing out a given amount of amphiphile, e.g., 100 mg, and preparing a stock solution in 30 mM sodium phosphate buffer in 100 ml. volumetric flask. Solutions of lower amphiphile concentration were prepared by making the appropriate dilutions from the stock solution.
(§3) The LDH enzyme assay (pyruvate+NADH→) is measured by the decrease in NADH absorbance at 340 nm with respect to time.

LD5 (rabbit muscle) = target: T2, LD5 (rabbit muscle) (Oryctolagus cuniculus, UniProt P13491); experiment: as above; format: biochemical
T2 construct: rabbit muscle LDH (Sigma Chemical Co., Type V); purchased Sigma Chemical Co. Type V; host or cells: rabbit muscle
Description: as §1, §2, §3

[1] = target: T3, LDH isoenzymes (LD5 in the presence of LD1) (Oryctolagus cuniculus, UniProt P13491); experiment: Anionic amphiphiles tested for specific interaction with LDH isoenzymes (Table 2); format: biochemical
T3 construct: LD1 (LDHB tetramer) only as comparison
Description: as §1, §2
A number of anionic amphiphiles were investigated for specific inactivation of LD5 in the presence of LD1 and these compounds are listed in Table 2.

LD1 = LD1 (Sus scrofa, UniProt P00336); experiment: LDH activity assay with amphiphile, LDH isoenzymes; format: biochemical, porcine; set-up: porcine LDH, LD1, LD2, LD3, LD4 and LD5 in the form of ammonium sulfate suspensions
Description: 3. Beef heart LDH (Sigma Chemical Co., Type III), rabbit muscle LDH (Sigma Chemical Co., Type V) and porcine LDH, LD1, LD2, LD3, LD4 and LD5 in the form of ammonium sulfate suspensions were used for these examples.
as §1, §2

mMDH = target: T4, mMDH (Sus scrofa, UniProt P00346); experiment: Assay for MDH (oxalacetic acid + NADH, 340 nm); format: biochemical, porcine; settings: FIG. 17
T4 construct: Porcine cMDH and mMDH were used as ammonium sulfate suspensions
T4 sequence (P00346 25-338): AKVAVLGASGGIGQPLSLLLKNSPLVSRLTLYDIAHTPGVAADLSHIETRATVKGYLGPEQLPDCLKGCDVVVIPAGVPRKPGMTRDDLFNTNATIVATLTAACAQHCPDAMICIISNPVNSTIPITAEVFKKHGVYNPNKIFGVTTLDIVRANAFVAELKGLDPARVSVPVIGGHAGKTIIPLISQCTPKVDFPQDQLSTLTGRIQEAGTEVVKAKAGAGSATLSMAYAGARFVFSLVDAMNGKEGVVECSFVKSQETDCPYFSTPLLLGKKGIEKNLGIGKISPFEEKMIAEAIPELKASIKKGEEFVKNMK
Description: 1. Porcine cMDH and mMDH were used as ammonium sulfate suspensions. Typically, 5 μl of the enzyme stock solutions were diluted to 10 ml with 30 mM phosphate buffer, pH 7.4, prior to use. The resulting enzyme solutions were stored in ice water; 100 μl aliquots were withdrawn for assay except where another amount is specified.
The assay is based on conversion of oxalacetic acid to malate in the presence of NADH and MDH. The assay was made [formula] in 30 mM phosphate buffer, at ambient temperature, with and without appropriate surfactant concentrations, and contained 0.17 mM OAA and 0.13 mM NADH. The reaction was followed by monitoring the decrease in absorbance at 340 nm using either a Beckman 25 or Cary 118 spectrophotometer. The OAA solutions were stored over ice to prevent hydrolysis to pyruvic acid.

Chain of LD1 (P00336 2-334): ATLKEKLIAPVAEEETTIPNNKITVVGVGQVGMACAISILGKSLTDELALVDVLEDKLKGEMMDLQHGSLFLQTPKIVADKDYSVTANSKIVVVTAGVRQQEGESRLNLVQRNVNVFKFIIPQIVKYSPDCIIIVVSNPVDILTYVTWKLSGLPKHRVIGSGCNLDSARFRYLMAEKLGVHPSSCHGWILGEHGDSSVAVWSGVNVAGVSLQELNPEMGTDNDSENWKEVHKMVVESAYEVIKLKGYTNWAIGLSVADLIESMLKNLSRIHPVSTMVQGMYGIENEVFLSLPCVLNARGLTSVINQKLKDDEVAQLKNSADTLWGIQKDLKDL
T1 sequence (Q5E9B1 2-334): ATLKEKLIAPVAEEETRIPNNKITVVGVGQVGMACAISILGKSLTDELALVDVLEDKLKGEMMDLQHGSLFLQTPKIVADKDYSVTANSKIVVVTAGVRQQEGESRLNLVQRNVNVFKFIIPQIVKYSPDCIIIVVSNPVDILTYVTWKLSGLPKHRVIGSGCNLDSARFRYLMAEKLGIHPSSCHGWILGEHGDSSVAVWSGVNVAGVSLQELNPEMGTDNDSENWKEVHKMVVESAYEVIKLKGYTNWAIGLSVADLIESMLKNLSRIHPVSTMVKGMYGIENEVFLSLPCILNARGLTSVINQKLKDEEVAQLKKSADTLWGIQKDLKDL

## CCCCCCCCCCOS(=O)(=O)[O-].[Na+] [DSS, sodium decylsulfate]
LD1 (beef heart)
  LD1 (beef heart) activity in the presence of amphiphile: almost no loss in LD1 activity
LD5 (rabbit muscle); DSS 8.65 mM, CP 1 mM, FIG. 1A
  LD5 (rabbit muscle) activity in the presence of amphiphile: rapidly inactivates
LD5 (rabbit muscle); anionic detergent (DSS), dead time of the instrument
  time to complete inactivation of LD5: ≤ 5 s
[1]
  Interaction (specific inactivation of LD5 in the presence of LD1): useful positive results
[1]; listed as sodium decylsulfate
  Interaction (specific inactivation of LD5 in the presence of LD1): specific
LD1; 9 mM DSS in 30 mM phosphate buffer, pH 7.4, FIG. 10
  LD1 activity in amphiphile solution compared with buffer: less than control LD1 activity in buffer
LD1; DSS beyond 9 mM, FIG. 8
  isoenzyme activity beyond 9 mM amphiphile: only LD1 continues to show activity
LD1; pH 7.4, read-out: LD1 activity remaining relative to buffer
  remaining activity at 7000 µM: ~65%
mMDH
  inactivation of mMDH relative to cMDH: clear preferential inactivation of mMDH relative to cMDH
